Measured values reported in article PMC9508196 (Scientific Reports, 2022).
Like-named read-outs stand apart in the source and are kept apart here. No end group written: not given here.

Legend:
A. baumannii ATCC 19,606 [1] = test: microbe, parasite or virus in culture; assay type: cell-based, Acinetobacter baumannii
Source text: (§1) Ten strains of both Gram-positive and -negative bacteria, including Staphylococcus aureus ATCC 25,923, S. epidermidis ATCC 12,228, Bacillus cereus ATCC 11,778, Listeria monocytogenes 10403S, Salmonella typhimurium ATCC 13,311, Pseudomonas aeruginosa ATCC 27,853, Shigella sonnei ATCC 11,060, A. baumannii ATCC 19,606, Escherichia coli ATCC 25,922 and E. coli O157:H7, were used in this study. Eight clinical isolates of multidrug-resistant (MDR) and extensively drug-resistant (XDR) A. baumannii, isolated from human (blood, sputum, respiratory sample, sterile site sample and urine), were kindly provided by Asst. Prof. Dr. Sakawrat Kanthawong (Faculty of Medicine, Khon Kaen University, Thailand) (Table S1). All bacterial strains, excluding L. monocytogenes 10403S and E. coli, were cultured in tryptic soy broth (TSB). L. monocytogenes was grown in TSB supplemented with 0.6% yeast extract (TSB-YE), and E. coli was cultured in Luria broth (LB). All of bacteria were cultured at 37 °C with continuous shaking at 220 rpm.
(§2) Minimum inhibitory concentration (MIC) of peptides and antibiotics was assessed by a modified version of the broth microdilution method from the Clinical and Laboratory Standards Institute (CLSI) as previously described. In brief, mid-log phase growths of microbial strains were cultured in Müeller-Hinton broth (MHB) with an initial inoculum of 2–8 × 10^5 CFU/mL. Bacteria suspensions were incubated in sterile 96-well plates with test agents at desired concentrations. […] Minimum bactericidal concentration (MBC) determination was performed using a modified version of the colony count assay. In brief, fifty µl of all non-turbid wells from MIC experiments were spread on agar plates. The MBC value was defined as the lowest concentration of peptides with no colony growth on the plate. All assays were performed in triplicate.

[2] = system: Bacillus cereus ATCC 11,778; assay type: cell-based; conditions: B. cereus ATCC 11,778; broth microdilution, MHB, 24 h, 37 °C, triplicate
Source text: as §1, §2

[3] = system: Escherichia coli O157:H7 MT strain; assay type: cell-based; conditions: E. coli O157:H7 MT strain; broth microdilution, MHB, 24 h, 37 °C, triplicate
Source text: as §1, §2

[4] = system: Listeria monocytogenes 10403S; assay type: cell-based; conditions: L. monocytogenes 10403S; broth microdilution, MHB, 24 h, 37 °C, triplicate
Source text: as §1, §2

[5] = system: Pseudomonas aeruginosa ATCC 27,853; assay type: cell-based; conditions: P. aeruginosa ATCC 27,853; broth microdilution, MHB, 24 h, 37 °C, triplicate
Source text: as §1, §2

[6] = system: Salmonella Typhimurium ATCC 13,311; assay type: cell-based; conditions: S. Typhimurium ATCC 13,311; broth microdilution, MHB, 24 h, 37 °C, triplicate
Source text: as §1, §2

[7] = system: Shigella sonnei ATCC 11,060; assay type: cell-based; conditions: S. sonnei ATCC 11,060; broth microdilution, MHB, 24 h, 37 °C, triplicate
Source text: as §1, §2

[8] = system: Staphylococcus epidermidis ATCC 12,228; assay type: cell-based; conditions: S. epidermidis ATCC 12,228; broth microdilution, MHB, 24 h, 37 °C, triplicate
Source text: as §1, §2

[9] = system: mouse fibroblast (L929) cells; test: In vitro cytotoxicity assay (MTT); assay type: cell-based; conditions: 24 h, peptide 62.5 µg/mL
Procedure: The colorimetric 3-(4,5 dimethylthiazol-2-yl)-2,5-diphenyltetrazolium bromide (MTT; Invitrogen) dye reduction assay was used to determine the cytotoxicity of peptides on mouse fibroblast (L929) cells (NCTC clone 929) according to a modified MTT assay. L929 cells were cultured in Dulbecco’s Modified Eagle Medium (DMEM; Gibco) containing 10% fetal bovine serum (FBS; Gibco) and 100 U/ml penicillin–streptomycin in a fully humidified atmosphere of 95% air and 5% CO2 at 37 °C. The cells (10^5 cells/well) were seeded on 96-well plates and incubated with serially diluted peptide (0.98 to 250 μg/ml) for 24 h. At the end of incubation period, MTT solution (100 µl, 0.4 mg/ml) was added to each well and incubated for 4 h. The supernatants were removed and replaced by 100 µl of DMSO to dissolve the purple formazan crystals. Absorbance was measured using a MultiskanTM FC microplate reader at a wavelength of 570 nm. Cells without peptides served as negative controls. Cell viability (percentage) was calculated using the following equation: %Cell viability=OD570of treated sample-ODBlank/OD570of control-ODBlank×100%

[10] = system: A. baumannii A-8.2–1 (XDR); test: microbe, parasite or virus in culture; assay type: cell-based, Acinetobacter baumannii
Source text: as §1, §2

[11] = system: A. baumannii B-8.1–1 (MDR); test: microbe, parasite or virus in culture; assay type: cell-based, Acinetobacter baumannii
Source text: as §1, §2

[12] = system: A. baumannii B-8.1–2 (MDR); test: microbe, parasite or virus in culture; assay type: cell-based, Acinetobacter baumannii
Source text: as §1, §2

[13] = system: A. baumannii B-8.2–2 (XDR); test: microbe, parasite or virus in culture; assay type: cell-based, Acinetobacter baumannii
Source text: as §1, §2

[14] = system: A. baumannii C-8.1–2 (MDR); test: microbe, parasite or virus in culture; assay type: cell-based, Acinetobacter baumannii
Source text: as §1, §2

[15] = system: A. baumannii C-8.2–1 (XDR); test: microbe, parasite or virus in culture; assay type: cell-based, Acinetobacter baumannii
Source text: as §1, §2

[16] = system: A. baumannii D-10.1–1 (MDR); assay type: cell-based, Acinetobacter baumannii; conditions: clinical isolate D-10.1–1 (MDR), urine
Source text: as §1, §2

[17] = system: A. baumannii D-10.1–2 (MDR); assay type: cell-based, Acinetobacter baumannii; conditions: clinical isolate D-10.1–2 (MDR), urine
Source text: as §1, §2

[18] = system: A. baumannii isolate A-8.2-1; test: Disk diffusion test (CLSI), antibiotic susceptibility profile; assay type: cell-based, Acinetobacter baumannii; conditions: CLSI breakpoints
Procedure: (§3) ^aAntibiotic susceptibility profile of all isolated strains was evaluated by disk diffusion test, using the standard protocol guide of the Clinical and Laboratory Standards Institute (CLSI), and interpreted as S: Susceptible to standard dosing regimen; I: Intermediate; R: Resistant (in accordance with the criteria of CLST breakpoints).

[19] = system: A. baumannii isolate B-8.1-1; test: as above; assay type: cell-based, Acinetobacter baumannii; conditions: CLSI breakpoints
Procedure: as §3

[20] = system: A. baumannii isolate B-8.1-2; test: as above; assay type: cell-based, Acinetobacter baumannii; conditions: CLSI breakpoints
Procedure: as §3

[21] = system: A. baumannii isolate B-8.2-2; test: as above; assay type: cell-based, Acinetobacter baumannii; conditions: CLSI breakpoints
Procedure: as §3

[22] = system: A. baumannii isolate C-8.1-2; test: as above; assay type: cell-based, Acinetobacter baumannii; conditions: CLSI breakpoints
Procedure: as §3

[23] = system: A. baumannii isolate C-8.2-1; test: as above; assay type: cell-based, Acinetobacter baumannii; conditions: CLSI breakpoints
Procedure: as §3

[24] = system: A. baumannii isolate D-10.1-1; test: as above; assay type: cell-based, Acinetobacter baumannii; conditions: CLSI breakpoints
Procedure: as §3

[25] = system: A. baumannii isolate D-10.1-2; test: as above; assay type: cell-based, Acinetobacter baumannii; conditions: CLSI breakpoints
Procedure: as §3

A. baumannii ATCC 19,606 [26] = test: microbe, parasite or virus in culture; conditions: for fold increase of MIC: serial passages at half-MIC
Procedure: A. baumannii ATCC 19,606 was adjusted to approximately 10^6 CFU/ml in MHB. […] After 24 h incubation, bacterial suspensions of the wells at half-MIC concentration of tested agent were taken and washed 2 times with MHB to prepare the next initial-passage of bacteria. Twenty repeat passages were performed for each tested compound. Along with the test, a negative control was included: the MIC value of bacteria cultured in MHB-deionized water after 20 passages.

[27] = system: Escherichia coli ATCC 25,922; assay type: cell-based; conditions: E. coli ATCC 25,922; broth microdilution, MHB, 24 h, 37 °C, triplicate
Source text: as §1, §2

[28] = system: Staphylococcus aureus ATCC 25,923; assay type: cell-based; conditions: S. aureus ATCC 25,923; broth microdilution, MHB, 24 h, 37 °C, triplicate
Source text: as §1, §2

[29] = system: human red blood cells (hRBCs); test: Hemolysis assay; assay type: cell-based; conditions: peptide concentration that caused 10% hemolysis; 2% (v/v) hRBCs in PBS pH 7.4, 0.98 to 250 μg/ml, 1 h, 37 °C, OD 405 nm, triplicate
Procedure: The hemolytic activity of peptides was determined as the amount of hemoglobin released from lysed human red blood cells (hRBCs) after treatment with peptide. Fresh hRBCs were collected from a healthy volunteer in polycarbonate tubes containing heparin. Then, the collected packed RBCs were washed at least three times (or until the supernatant was clear) with sterile phosphate-buffered saline pH 7.4 (PBS) and centrifuged at 2,000 × g for 5 min. The 2% (v/v) of washed hRBCs in PBS were incubated with serially diluted peptides (0.98 to 250 μg/ml) for 1 h at 37 °C. After centrifugation, the supernatants were monitored for optical density (OD) at 405 nm using a Multiskan FC Microplate Reader[21]. Values for 0% (negative control) and 100% (positive control) lysis were determined by incubating the hRBCs with PBS only (ODBlank) and 0.1% (v/v) Triton X-100 (ODTriton X-100), respectively. The experiments were performed in triplicate. The percent hemolysis was calculated according to the following equation: %Hemolysis=ODSample-ODBlank/ODTriton X-100-ODBlank×100

[30] = A. baumannii ATCC 19,606, broth microdilution (modified CLSI), MHB, 2–8 × 10^5 CFU/mL, 24 h, 37 °C, triplicate
[31] = clinical isolate A-8.2–1 (XDR), blood
[32] = clinical isolate B-8.1–1 (MDR), respiratory tract
[33] = clinical isolate B-8.1–2 (MDR), respiratory tract
[34] = clinical isolate B-8.2–2 (XDR), respiratory tract
[35] = clinical isolate C-8.1–2 (MDR), sterile site
[36] = clinical isolate C-8.2–1 (XDR), sterile site

CC[C@H](C)[C@H](NC(=O)CN)C(=O)NCC(=O)N[C@@H](C)C(=O)N[C@H](C(=O)N[C@@H](CC(C)C)C(=O)N[C@@H](CCCCN)C(=O)N[C@H](C(=O)N[C@@H](CC(C)C)C(=O)N[C@H](C(=O)N[C@H](C(=O)NCC(=O)N[C@@H](CC(C)C)C(=O)N1CCC[C@H]1C(=O)N[C@@H](C)C(=O)N[C@@H](CC(C)C)C(=O)N[C@H](C(=O)N[C@@H](CO)C(=O)N[C@@H](Cc1c[nH]c2ccccc12)C(=O)N[C@H](C(=O)N[C@@H](CCCCN)C(=O)N[C@@H](CCCNC(=N)N)C(=O)N[C@@H](CCCCN)C(=O)N[C@@H](CCCNC(=N)N)C(=O)N[C@@H](CCC(N)=O)C(=O)N[C@@H](CCC(N)=O)C(N)=O)[C@@H](C)CC)[C@@H](C)CC)[C@@H](C)O)[C@@H](C)O)C(C)C)C(C)C [Melittin, reference compound]
less than 5%: cell viability [9]
3.91 µg/mL: MIC (A. baumannii ATCC 19,606 [1]; [30]) | MIC [4] | MIC [6] | MIC [7] | MIC [8]
7.81 µg/mL: MIC [2] | MIC [3] | MIC [5]

Colistin
0.98(0.98) µg/ml: MIC (A. baumannii ATCC 19,606 [1]; [30]) | MBC (A. baumannii ATCC 19,606 [1]; A. baumannii ATCC 19,606, colony count from non-turbid MIC wells, triplicate) | MBC [12, 33] | MIC [12, 33] | MBC [15, 36] | MIC [15, 36] | MBC [16] | MIC [16]
1.95(1.95) µg/ml: MBC [10, 31] | MIC [10, 31] | MBC [11, 32] | MIC [11, 32] | MBC [13, 34] | MIC [13, 34] | MBC [14, 35] | MIC [14, 35] | MBC [17] | MIC [17]
S: Antibiotic susceptibility profile [18] | Antibiotic susceptibility profile [19] | Antibiotic susceptibility profile [20] | Antibiotic susceptibility profile [21] | Antibiotic susceptibility profile [22] | Antibiotic susceptibility profile [23] | Antibiotic susceptibility profile [24] | Antibiotic susceptibility profile [25]

C[C@@H](O)[C@H]1C(=O)N2C(C(=O)O)=C(S[C@@H]3CN[C@H](C(=O)N(C)C)C3)[C@H](C)[C@H]12 [Meropenem]
125 µg/mL: MBC ([12]; Acinetobacter baumannii) | MIC ([12]; Acinetobacter baumannii) | MBC ([13]; Acinetobacter baumannii) | MIC ([13]; Acinetobacter baumannii) | MBC ([14]; Acinetobacter baumannii) | MIC ([14]; Acinetobacter baumannii) | MIC ([15]; Acinetobacter baumannii)
eight: fold increase of MIC (A. baumannii ATCC 19,606 [26]; day 11)
62.5 µg/mL: MBC ([10]; Acinetobacter baumannii) | MIC ([10]; Acinetobacter baumannii)
4 fold: fold increase of MIC (A. baumannii ATCC 19,606 [26]; day 6)
16 fold: fold increase in MIC compared to the first passage (A. baumannii ATCC 19,606 [26]; after passage 20)
15.6 µg/mL: MBC ([11]; Acinetobacter baumannii) | MIC (A. baumannii ATCC 19,606 [26]; Acinetobacter baumannii, ATCC19, 24 h, read-out: MIC after 20 passages)
S: Antibiotic susceptibility profile [19]
2 fold: fold increase of MIC (A. baumannii ATCC 19,606 [26]; day 4)
0.98 µg/mL: MBC (A. baumannii ATCC 19,606 [1]; Acinetobacter baumannii, ATCC19) | MIC (A. baumannii ATCC 19,606 [1]; Acinetobacter baumannii, ATCC19, 24 h) | MIC ([11]; Acinetobacter baumannii)
R: Antibiotic susceptibility profile [18] | Antibiotic susceptibility profile [20] | Antibiotic susceptibility profile [21] | Antibiotic susceptibility profile [22] | Antibiotic susceptibility profile [23] | Antibiotic susceptibility profile [24] | Antibiotic susceptibility profile [25]
250 µg/mL: MBC ([15]; Acinetobacter baumannii)

RLFRRVKKVAGKIAKRIWKILRR-NH2 [A3P7]
1.95 µg/mL: MHC, minimum hemolytic concentration [29]
3.91 µg/mL: MIC [4]
7.81 µg/mL: MIC (A. baumannii ATCC 19,606 [1]; [30]) | MIC [2] | MIC [27] | MIC [5] | MIC [6] | MIC [7] | MIC [28] | MIC [8]
15.63 µg/mL: MIC [3]
